Results on seven compounds are retold here after patent US20220257722A1, “COMPOSITIONS AND METHODS OF TREATING AND PREVENTING SYSTEMIC COMPLICATIONS OF ACUTE ILLNESS” (United States Government As Represented By The Department …, priority 2019, published 2022).

One series deals with rat jejunal mucosa. Briefly: LPS mucosal-to-serosal transport in Ussing-chambered rat jejunal mucosa (LAL test). The series is classed as cell-based. Particulars: for OA/TCA-augmented LPS transport (t=30-45 min): mucosal LPS 10 μg/ml + OA 30 mM/TCA 0.1 mM; for OA/TCA-augmented LPS transport (t=30-45 min) / LPS transport at t=15 min (LPS alone, absence of OA/TCA): drug added 10 or 15 min before LPS; for LPS transport at t=15 min (LPS alone, absence of OA/TCA): mucosal LPS 10 μg/ml. The procedure: Short-circuit current measurements in Ussing chambered preparations. Mucosa-submucosa preparations were prepared from the mid-jejunum (˜20 cm from the pyloric ring) by muscle stripping using fine forceps under a stereomicroscope. Two or four preparations were prepared from one animal. The tissue was then mounted between two hemi-sliders with an aperture=0.3 cm^2 (Physiologic Instruments, San Diego, Calif., USA). Chambers were bathed with serosal and luminal bathing solutions in a volume of 4 ml each, maintained at 37° C. using a water recirculating heating system. The serosal Krebs-Ringer solution contained (in mM) NaCl, 117; KCl, 4.7; MgCl2, 1.2; NaH2PO4, 1.2; CaCl2, 2.5; NaHCO3, 25; glucose, 11; and bubbled with 95% O2-5% CO2 to maintain pH at 7.4. The luminal bathing solution contained NaCl, 136; KCl, 2.6; CaCl2, 1.8; HEPES, 10 (pH 7.0); mannitol, 11; and bubbled with 100% O2. The tissues were short-circuited by a voltage clamp (VCC MC6, Physiologic Instruments) at zero potential difference with automatic compensation for solution resistance. Short-circuit current (Isc) was continuously measured with tissue conductance (Gt) and TEER (Ω·cm^2) determined every 20 sec in order to assess the tissue integrity during the LPS and lipid exposure. The current was recorded by the DataQ system (Physiologic Instruments). IND (10 μM) was added to the serosal bath to eliminate the effects of endogenous prostaglandin production. The tissues were stabilized for ˜30 min before the addition of test chemicals.
LPS movement from mucosal to serosal solution. LPS movement m-to-s was assessed using a LAL test kit (Pierce Chromogenic Endotoxin Quant Kit, Pierce Biotechnology, Rockford, Ill., USA), which eliminates non-specific detection of (1,3)-β-D-glucan, then reduces false-positive LPS measurements. After tissue stabilization, time was set as t=0 min. Fifty μl of the serosal solution was collected at 0 min as a blank sample, followed by collection at t=15, 30 and 45 min. At t=0 min, LPS (10 μg/ml) was added into the mucosal solution. Vehicle (PBS alone), TCA alone (0.1 mM) in PBS or OA (3, 10, 30 mM) with TCA (0.1 mM) in PBS was added into the mucosal solution at t=15 min. The tissues were pretreated with drugs 10 or 15 min before the addition of LPS (i.e. at t=−10 or −15 min). The collected serosal solutions were kept at −80° C. until use. LPS content in the serosal solutions was measured with the LAL test according to the manufacturer's protocol. The value of background at t=0 min was subtracted and the serosal LPS appearance was expressed as Δ[LPS] (EU/ml). In some experiments, FITC-LPS (10 μg/ml) was used instead of LPS. Serosal FITC-LPS content was assessed by FITC fluorescence intensity measurement using a multi-mode microplate reader (Synergy-2, BioTek Instruments, Inc., Winooski, Vt., USA). To detect macromolecule m-to-s movement across the mucosa, FD4 (0.1 mM) was applied into the mucosal bath and serosal FD4 content was assessed by FITC fluorescence intensity measurement.
Ussing chamber study: drug treatment. The following drugs were pretreated by addition to the mucosal (m) or serosal (s) bath 10 or 15 min before LPS addition to the mucosal bath: the lipid raft inhibitor MβCD (1 mM, m), the CD36 inhibitor SSO (0.1 mM, m), the muscarinic agonist CCh (10 μM, s), a competitive substrate for IAP (IAP inhibitor) GP (10 mM, m) (47), GLP-2 (100 nM, s), the dipeptidyl peptidase-4 (DPP4) inhibitor NVP-728 (10 μM, s) (36), the stable GLP-2 analog TDG (100 nM) (13), the insulin-like growth factor-1 (IGF-1) receptor tyrosine kinase inhibitor NVP-AEW-541 (10 μM, s) (22), the epidermal growth factor (EGF) tyrosine kinase inhibitor PD153035 (1 μM, s) (6), the nitric oxide (NO) synthase (NOS) inhibitor L-NAME (0.1 mM, s) and the selective VPAC1 antagonist PG97-269 (1 μM) (26).

In the next series the test system is rat small intestine. As to the kind of experiment: LPS-induced small intestinal FD4 paracellular permeability in vivo (PV and arterial FD4). Particulars: for TDG-induced inhibitory effect on PV FD4 levels: LPS 6 hr + TDG 6 hr. The procedure: LPS treatment. Animals were treated with LPS (5 mg/kg, ip) once at 9 am. For the acute experiments, the animals were fasted overnight and were treated with LPS 1, 3, or 6 hr before the anesthesia for small intestinal perfusion of FD4 as described herein. For the 24-hr experiments, the animals fed ad libitum were treated with LPS 24 hr before anesthesia induction used for the perfusion study. As a control, saline was injected ip at the corresponding time before the experiments. The animal groups were expressed as control, LPS 1 hr, LPS 3 hr, LPS 6 hr, and LPS 24 hr.
Small intestinal perfusion. The small intestinal perfusion from the duodenum, and portal vein (PV) cannulation were prepared by the modified methods. Under isoflurane anesthesia (2%), the animal was placed […] on a recirculating heating block system (Summit Medical Systems, Bend, Oreg., USA) in order to maintain body temperature at 36-37° C. Prewarmed saline was infused via the right femoral vein at 1.08 ml/h using a Harvard infusion pump (Harvard Apparatus, Holliston, Mass., USA). The abdomen was incised, and the PV was cannulated with a polyethylene (PE)-50 tube attached with 23G needle and fixed by methylacrylate adhesive at the insertion site. The tube was filled with heparinized saline enabling repeated blood sampling. Samples of 0.2 ml PV blood were collected every 15 min, followed by flushing with 0.2 ml heparinized saline. A polyethylene tube (diameter 5 mm) filled with PBS was inserted through the forestomach and tied at 0.5 cm caudal from the pyloric ring. After bolus perfusion of 2-ml phosphate buffer saline (PBS, 10 mM, pH 7.4) into the duodenum from the tube, followed by stabilization for ˜30 min, the time was set as t=0. FD4 (0.1 mM) in 10-ml PBS was slowly perfused at t=0 min for 30 sec. Blood samples were collected into a 0.5-ml tubes containing 1-μl each of EDTA (0.5 M) and the dipeptidyl peptidase-4 (DPP4) inhibitor NVP-728 (1 mM), and immediately centrifuged at 5,000× g for 5 min, after which the plasma was stored on ice or at −80 ° C. until use. At 90 min, after collection of PV samples, arterial blood was taken from abdominal aorta, followed by euthanasia by thoracotomy.
Appearance of FD4 into the PV and arterial plasma was assessed by fluorescence intensity measurement using a multi-mode microplate reader (Synergy-2, BioTek Instruments, Inc., Winooski, VT, USA). Fluorescence intensity in t=0 sample as background was subtracted from the fluorescence values measured in other time point samples. FD4 content was calculated according to the standard curve generated each time of measurement.
Drug treatment for the intestinal perfusion study. The following drugs were administered at the time after LPS treatment: the GLP2R partial agonist/antagonist GLP-2(3-33) (1 mg/kg; 280 nmol/kg, ip) was given immediately after LPS treatment (0 hr after LPS treatment); GLP-2 (380 μg/kg; 100 nmol/kg, ip) was given 6 hr after LPS treatment; a stable GLP-2 analog TDG (50 μg/kg; 13.3 nmol/kg) was ip injected 0, 3, 6, or 12 hr after LPS treatment or iv injected at t=0 min just before the perfusion of FD4 solution (6 or 24 hr after LPS treatment). In acute experiments, TDG was iv injected at t=0 min (6 hr after LPS treatment) with or without the pretreatment of the selective IGF1 receptor (IGF1R) tyrosine kinase inhibitor AEW541 (0.1 mg/kg, iv), the selective EGF receptor (EGFR) tyrosine kinase inhibitor PD153035 (10 μg/kg, iv) or PG97-269 (1 mg/kg, iv) at t=−10 min, or the co-perfusion of L-NAME (0.1 mM, pf) with FD4 solution.

For series [1] the following is noted: pig, in vivo; cited from earlier work.
[2] abbreviates: inhibitor iv at t=-10 min or co-perfused.
The mark [3] stands for this setting: inhibitor serosal before GLP-2 + NVP-728.
Setting [4] is: LPS 6 hr model, GLP-2(3-33) 1 mg/kg ip immediately after LPS.
The mark [5] stands for this setting: LPS 24 hr model, GLP-2 380 μg/kg ip 6 hr after LPS.

Consider `C[N+](C)(C)CCOC(N)=O` [CCh, carbachol], for which, in the series on rat jejunal mucosa, the “OA/TCA-augmented LPS transport (t=30-45 min)” value (shortened to “OA/TCA-augmented LPS transport”) was “further increased” and the “LPS transport at t=15 min (LPS alone, absence of OA/TCA)” value was “increased”.

As for `O=P(O)(O)OCC(O)CO` (stereo not drawn) [GP, glycerol phosphate], in the series with rat jejunal mucosa, the “OA/TCA-augmented LPS transport” value is on record as “further increased” and the “LPS transport at t=15 min (LPS alone, absence of OA/TCA)” value was “no effect”.

Turning to `N#Cc1ccc(NCCNCC(=O)N2CCC[C@H]2C#N)nc1` [NVP-728], in the series with rat jejunal mucosa, the “OA/TCA-augmented LPS transport” value is on record as “no effect” and the “LPS transport at t=15 min (LPS alone, absence of OA/TCA)” value is “no effect”.

`Nc1ncnc2c1c(-c1cccc(OCc3ccccc3)c1)cn2[C@H]1C[C@@H](CN2CCC2)C1` [NVP-AEW-541]: the “TDG-induced inhibitory effect on PV FD4 levels” value in the series with rat small intestine (setting [2]) is “no effect”.

As for `COc1cc2ncnc(Nc3cccc(Br)c3)c2cc1OC` [PD153035], the “TDG-induced inhibitory effect on PV FD4 levels” value in the series on rat small intestine (setting [2]) is “no effect”. For the same compound, the “Arterial FD4 levels in LPS 6 hr + TDG 6 hr rats” value in the series on rat small intestine (t=90 min, inhibitor iv at t=-10 min or co-perfused) is “not affected”. In addition, in the series with rat jejunal mucosa (setting [3]), the “amount of LPS transport after addition of OA/TCA, in presence of GLP-2 + NVP-728” value is listed as “further increased” and the “amount of LPS transport at t=15 min (prior to OA/TCA exposure), in presence of GLP-2 + NVP-728” value is on record as “increased”.

Turning to “GLP-2(3-33): GLP-2 receptor partial agonist/antagonist; truncated GLP-2 peptide missing the first 2 amino acids (DGSFSDEMNTILDNLATRDFINWLIQTKITD; Glucagon-like peptide 2; UniProt P06883 148-178, looked up, fragment)”, in the series with rat small intestine (setting [4]), the “PV FD4 levels at t=60-90 min” value was “further increased” and the “arterial FD4 levels at t=90 min” value is given as “further increased”. Further, in the series on rat jejunal mucosa, the “OA/TCA-augmented LPS transport” value is reported as “no effect” and the “LPS transport at t=15 min (LPS alone, absence of OA/TCA)” value is “no effect”.

In the case of “HADGSFSDEMNTILDNLATRDFINWLIQTKITD [GLP-2, Glucagon-like peptide-2; rat GLP-2 from Tocris used in the experiments]”, in the series with rat small intestine (setting [5]), the “PV FD4 levels” value was “reduced” and the “arterial FD4 levels” value is on record as “reduced”. In series [1], the “t1/2 of exogenous GLP-2” value is about 7 min. Further, the “LPS transport during OA/TCA exposure period, GLP-2 with NVP-728” value in the series with rat jejunal mucosa (GLP-2 100 nM + DPP4 inhibitor NVP-728 10 μM, serosal) is on record as “inhibited”. For the same compound, in the series with rat jejunal mucosa, the “OA/TCA-augmented LPS transport” value is given as “no effect” and the “LPS transport at t=15 min (LPS alone, absence of OA/TCA)” value was “no effect”.
